The target in the assay is Transient receptor potential cation channel subfamily A member 1 (Homo sapiens, UniProt O75762). The assay is described as follows: Inhibition Assay: IC50 values (effective concentration) of compounds on the human and rat TRPA1 channels were determined using a FLIPR Tetra instrument. CHO cells expressing TRPA1 were plated into 384-well plates, incubated overnight at 37 C, and loaded with BD calcium indicator dye for 1 hr at 37° C. followed by 15 minutes. at room temperature. The assay buffer was Hank's Balanced Salt Solution (HBSS) containing 20 mM HEPES (pH readjusted to 7.4) along with 0.02% BSA.Following dye load and plate cool down, compounds were added to the cells using FLIPR Tetra. Plates were then incubated with compounds for 20 minutes at room temperature prior to adding agonist. Following this incubation, ˜EC80 concentration of cinnamaldehyde (75 uM for human TRPA1 and 45 uM for rat TRPA1) was added to active the channels and block of cinnamaldehyde induced calcium influx was measured.
Sequence of Transient receptor potential cation channel subfamily A member 1 (O75762 whole entry): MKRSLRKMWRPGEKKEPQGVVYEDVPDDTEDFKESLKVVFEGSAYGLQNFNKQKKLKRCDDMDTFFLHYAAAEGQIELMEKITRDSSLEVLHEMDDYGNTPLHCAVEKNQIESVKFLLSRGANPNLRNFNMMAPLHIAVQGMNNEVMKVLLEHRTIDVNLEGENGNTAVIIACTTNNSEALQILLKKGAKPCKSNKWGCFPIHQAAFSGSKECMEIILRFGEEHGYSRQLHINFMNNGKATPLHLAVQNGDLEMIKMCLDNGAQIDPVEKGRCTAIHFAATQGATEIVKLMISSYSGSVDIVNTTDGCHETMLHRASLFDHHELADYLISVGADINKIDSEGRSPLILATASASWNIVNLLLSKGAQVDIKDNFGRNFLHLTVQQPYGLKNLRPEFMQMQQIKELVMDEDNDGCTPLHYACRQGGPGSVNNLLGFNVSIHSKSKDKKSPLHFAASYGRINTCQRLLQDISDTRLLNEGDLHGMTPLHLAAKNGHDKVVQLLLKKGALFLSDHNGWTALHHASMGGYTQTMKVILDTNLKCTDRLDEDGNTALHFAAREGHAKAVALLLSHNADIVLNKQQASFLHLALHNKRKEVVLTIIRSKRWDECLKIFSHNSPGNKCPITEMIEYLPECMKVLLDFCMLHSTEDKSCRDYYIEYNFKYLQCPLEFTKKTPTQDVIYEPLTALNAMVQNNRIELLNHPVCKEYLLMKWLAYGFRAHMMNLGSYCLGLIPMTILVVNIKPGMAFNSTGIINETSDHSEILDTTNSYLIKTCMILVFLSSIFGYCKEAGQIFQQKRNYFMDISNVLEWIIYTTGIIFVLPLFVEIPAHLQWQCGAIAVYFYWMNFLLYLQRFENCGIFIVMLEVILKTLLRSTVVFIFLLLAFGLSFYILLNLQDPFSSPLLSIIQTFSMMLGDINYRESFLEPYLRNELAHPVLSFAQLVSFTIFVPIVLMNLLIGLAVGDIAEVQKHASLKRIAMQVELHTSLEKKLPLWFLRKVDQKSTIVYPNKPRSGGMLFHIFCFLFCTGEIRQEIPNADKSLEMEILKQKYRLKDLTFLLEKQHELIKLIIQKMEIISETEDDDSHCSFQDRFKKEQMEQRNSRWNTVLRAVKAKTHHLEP

What is called IC50 is the midpoint of a concentration-inhibition curve.

With `O=C(Cn1cc(-c2ccc(C(F)(F)F)cc2)cn1)N[C@@H]1CC[C@@H]1S(=O)(=O)c1ccc(F)cc1`, the IC50 amounted to 200 nM.
For `COc1nn(-c2cnc(C(F)(F)F)nc2)cc1CC(=O)N[C@@H]1CC[C@@H]1S(=O)(=O)c1ccc(F)cc1` the value was 246 nM.

These data come from ChEMBL document CHEMBL5727953, “Sulfonylcycloalkyl carboxamide compounds” (2020).
